The source of these data is patent US20230339997A1, “CLASS OF PLATINUM COMPOUNDS FOR TREATING CANCER, AND METHOD FOR PREPARATION THEREOF” (SHANGHAI HAIJU BIOLOGICAL TECHNOLOGY CO., LTD., priority 2020, published 2023).

A short description of series [1]: In vitro water solubility experiment. The note with it: for solubility at 30 min / solubility: 25 °C, water, thermodynamic from solid; for improvement of water solubility compared with carboplatin: compared with the marketed drug carboplatin. On the procedure:
In Vitro Water Solubility Experiment of Example
At room temperature of 25° C., the test sample that had been ground into a fine powder was weighed accurately, and shaken vigorously for 30 seconds every 5 minutes in a certain volume of distilled water; and the dissolution of each test sample was observed within 30 minutes. If no visible solute particles were visible, the sample was considered to be completely dissolved.

The conditions of series [2]: background, studies have shown; cited from earlier work.
A further series concerns S180 sarcoma. The series is described as follows: In vivo tumor inhibition experiment, transplanted tumor S180 in mice. As to conditions: for Tumor inhibition rate % / Tumor weight (g) X ± SD: S180 sarcoma mice, dl, 4, killed on eighth day. Details: species or system Kunming mice. On the procedure:
In Vivo Tumor Inhibition Experiment of Example
The inhibitory effects of example S47 and example S70 of the present disclosure on animal transplanted tumor S180 were tested.
Kunming mice, ♀, 22±1 g, were purchased from Shanghai Slac Laboratory Animal Co., Ltd. Certificate number: SCXK (Shanghai) 2013-0010-02. Feeding environment: SPF level. Example S47, example S70 and carboplatin, a positive control drug, were prepared with 5% glucose to the required concentration. Mice were subcutaneously inoculated with S180 sarcoma cells, and the drug administration was started on the next day of inoculation. The mice were killed on the eighth day, and the tumor was weighed and the tumor inhibition rate was calculated.
Tumor inhibition rate=(tumor weight in the control group−tumor weight in the treatment group)/tumor weight in the control group×100

Molecules are shown by their SMILES. Values after ≈ are worked out from the molar mass of the structure shown. “Also recorded” adds a separate entry of the source.

For orientation: solubility means the concentration that dissolves in the medium under given conditions. A high value points to a readily soluble substance. On to `N=C(N)NCCC[C@@H]1NC(=O)[C@@H](CCCCNC(=O)CCOCCOCCOCCOCCNC(=O)CC[C@H](NC(=O)CCSC2CC(=O)N(CCCCCC(=O)NN=C3CC4(C3)C(=O)[O][Pt]([NH2])([NH2])[O]C4=O)C2=O)C(=O)NCCOCCOCCOCCOCCC(=O)NCCCC[C@H]2NC(=O)[C@@H](Cc3ccccc3)NC(=O)[C@H](CC(=O)O)NC(=O)CNC(=O)[C@H](CCCNC(=N)N)NC2=O)NC(=O)[C@@H](Cc2ccccc2)NC(=O)[C@H](CC(=O)O)NC(=O)CNC1=O` (stereo partly drawn) [Example S72], for which, in series [1], the solubility at 30 min was > 30 mg/mL and the “improvement of water solubility compared with carboplatin” value is listed as ~1 fold.
`[NH2][Pt]1([NH2])[O]C(=O)C2(CCC2)C(=O)[O]1` [carboplatin, reference compound] showed a solubility at 30 min in series [1] of 16.6 mg/mL. Also, the water solubility in series [2] is reported as 17.0 mg/mL.
With `N=C(N)NCCC[C@@H]1NC(=O)[C@@H](CCCCNC(=O)CCOCCOCCOCCOCCNC(=O)CC[C@H](NC(=O)CCSCC2=CCC(=O)N2CC2CCC(C(=O)NN=C3CC(C(=O)O)(C(=O)O)C3)CC2)C(=O)NCCOCCOCCOCCOCCC(=O)NCCCC[C@H]2NC(=O)[C@@H](Cc3ccccc3)NC(=O)[C@H](CC(=O)O)NC(=O)CNC(=O)[C@H](CCCNC(=N)N)NC2=O)NC(=O)[C@@H](Cc2ccccc2)NC(=O)[C@H](CC(=O)O)NC(=O)CNC1=O` (stereo partly drawn) [Example S97], in series [1], the concentration in solution (solubility) came to 30 mg/mL (≈ 13.1 mM).
In the case of `CC(=O)N[C@@H](CCCNC(=N)N)C(=O)NCC(=O)N[C@@H](CC(=O)O)C(=O)NCCSC1CC(=O)N(CCCCCC(=O)NN=C2CC3(C2)C(=O)[O][Pt]([NH2])([NH2])[O]C3=O)C1=O` (stereo partly drawn) [Example S70], the “Tumor inhibition rate %” value was found to be 52.3% in the series with S180 sarcoma (dose 80, Ip); 70.8% with S180 sarcoma (dose 160, Ip); 84.6% in the series on S180 sarcoma (dose 240, Ip). For the same compound, the “Tumor weight (g) X ± SD” value stood at 0.92 ± 0.20 g in the series with S180 sarcoma (dose 80, Ip); 0.56 ± 0.17 g with S180 sarcoma (dose 160, Ip); 0.30 ± 0.14 g in the series on S180 sarcoma (dose 240, Ip). Besides, in the series with S180 sarcoma (compared with carboplatin at equimolar concentrations), the “inhibitory effect on growth of S180 sarcoma of mice (in words)” value is reported as “more obvious ability to inhibit the growth of transplanted tumor S180 than the clinical drug carboplatin; also recorded: significantly better than carboplatin”.
For `N=C(N)NCCC[C@@H]1NC(=O)[C@@H](CCCCNC(=O)CCOCCOCCOCCOCCNC(=O)CC[C@H](NC(=O)CCSC2CC(=O)N(CC3CCC(C(=O)NN=C4CC(C(=O)O)(C(=O)O)C4)CC3)C2=O)C(=O)NCCOCCOCCOCCOCCC(=O)NCCCC[C@H]2NC(=O)[C@@H](Cc3ccccc3)NC(=O)[C@H](CC(=O)O)NC(=O)CNC(=O)[C@H](CCCNC(=N)N)NC2=O)NC(=O)[C@@H](Cc2ccccc2)NC(=O)[C@H](CC(=O)O)NC(=O)CNC1=O` (stereo partly drawn) [Example S95], the solubility in series [1] is > 30 mg/mL.
Turning to `N=C(N)NCCC[C@@H]1NC(=O)[C@@H](CCCCNC(=O)CCOCCOCCOCCOCCNC(=O)CC[C@H](NC(=O)CCSC2CC(=O)N(CCOCCOCCC(=O)NN=C3CC4(C3)C(=O)[O][Pt]([NH2])([NH2])[O]C4=O)C2=O)C(=O)NCCOCCOCCOCCOCCC(=O)NCCCC[C@H]2NC(=O)[C@@H](Cc3ccccc3)NC(=O)[C@H](CC(=O)O)NC(=O)CNC(=O)[C@H](CCCNC(=N)N)NC2=O)NC(=O)[C@@H](Cc2ccccc2)NC(=O)[C@H](CC(=O)O)NC(=O)CNC1=O` (stereo partly drawn) [Example S80], in series [1], the solubility at 30 min was > 30 mg/mL and the “improvement of water solubility compared with carboplatin” value is recorded as ~1 fold.
